Results as given in patent US11766468B2, “Method of treating prostate cancer with GnRH antagonist” (priority 2012, dated 2023).
Square brackets hold non-standard residues; d marks the D form. Peptide text beside a SMILES is read from it. * marks the point of attachment. dPhe(4-NHCONH2) = NC(=O)Nc1ccc(C[C@@H](N)C(=O)O)cc1; Dihydroorotyl(S) = O=C1C[C@@H](C(=O)*)NC(=O)N1; dPhe(4-Cl) = N[C@H](Cc1ccc(Cl)cc1)C(=O)O; Phe(4-NH2) = Nc1ccc(C[C@H](N)C(=O)O)cc1; d2Nal = N[C@H](Cc1ccc2ccccc2c1)C(=O)O; Lys(iPr) = CC(C)NCCCC[C@H](N)C(=O)O; d3Pal = N[C@H](Cc1cccnc1)C(=O)O

What was measured:
[1] = clinical; conditions: human, in vivo, sc
Description: Median degarelix trough concentrations in the maintenance phase with 80 mg at a concentration of 20 mg/mL was 10.9 ng/mL.
The long half-life after subcutaneous administration is a consequence of a very slow release of degarelix from the depot formed at the injection site(s). The pharmacokinetic behavior of the drug is strongly influenced by its concentration in the injection formulation.

[2] = set-up: species or system human; conditions: in vivo
From the text: Plasma protein binding is estimated to be approximately 90%.

[3] = test system: human CYP450 system; format: in vitro ADME
[4] = test system: testosterone; test: Example 2: serum testosterone (LC-MS/MS); format: in vivo, human; conditions: from Day 28 (Month 1)
Description: Serum testosterone was typically measured at baseline and then monthly in all cases. Serum testosterone was measured at a central laboratory using a validated liquid chromatography system with a tandem mass spectrometry assay with a lower limit of quantitation of 3 ng/dl.

[5] = in vivo
Description: In this example, a study was conducted to investigate the risk of cardiovascular events when ADT is utilized by a GnRH antagonist versus agonist in patients with or without a history of cardiovascular events.
Specifically, this study utilized available data yielding a safety database of 2328 PCa (prostate cancer) patients who participated in randomized clinical trials and received treatment with either degarelix or a GnRH agonist for up to 12 months (13 treatment months).
The study is based on data from two completed Phase 3 and 4 Phase 3b trials, all of which used an active comparator in form of a GnRH agonist. In each study, the primary inclusion criteria were male subjects ≥8 years of age with histologically confirmed adenocarcinoma of the prostate in whom ADT was indicated and a life expectancy of minimum 12 months could be anticipated. All subjects had serum testosterone levels that were either within the age-specified normal range or above the lower limit of the normal range of the central laboratory and ECOG score ≤2. Exclusion criterion ensured that none of the subjects had received long-term ADT (>6 months) before study entry.
Baseline evaluation included thorough collection of the main demographic characteristics (age, weight, height), lifestyle factors (smoking and drinking habits), and major CV risk factors (treated type 2 diabetes, treated hyperlipidemia, treated hypertension, and systolic and diastolic blood pressure). Patients also underwent physical examination and ECG assessment for potential cardiac morbidities. Medical history of CV events was captured by the following Standardized MedDRA Queries (myocardial infarction, ischemic heart diseases, ischemic stroke, hemorrhagic stroke, other arterial thrombotic/embolic events).
Cardiovascular events of interest were collected prospectively, typically at monthly visits, as adverse events or serious adverse events with date of occurrence. These events were coded using standard MedDRA terms and grouped into one of the same categories as those used to collect medical history.
The CV event rates in agonist and antagonist-treated patients were analyzed by 1-Kaplan-Meier plots of time to first-reported CV events and compared with log-rank test. The analysis was performed separately for strata of patients with or without history of CV events. To identify independent predictors of CV events we applied multivariate Cox proportional hazards models.
To further explore the apparent independent role of treatment choice and identify independent modifiable risk factors, this study established Cox proportional hazard models including CV events occurring during treatment as dependent variable and age, history of CV event, drinking (i.e., high alcohol consumption or abstinence) and smoking habits, hypertension, serum testosterone level and PCa disease stage as independent variables.

[6] = human, in vivo
From the text: Safety data from all clinical trials with degarelix in the treatment of prostate cancer, including patients receiving other dosing regimens, were pooled.

[7] = in vivo; remark: listed apart in the source
Description: Laboratory parameters (Table 4) were recorded at screening and during the study.

SMILES: CC(=O)N[C@H](Cc1ccc2ccccc2c1)C(=O)N[C@H](Cc1ccc(Cl)cc1)C(=O)N[C@H](Cc1cccnc1)C(=O)N[C@@H](CO)C(=O)N[C@@H](Cc1ccc(NC(=O)[C@@H]2CC(=O)NC(=O)N2)cc1)C(=O)N[C@H](Cc1ccc(NC(N)=O)cc1)C(=O)N[C@@H](CC(C)C)C(=O)N[C@@H](CCCCNC(C)C)C(=O)N1CCC[C@H]1C(=O)N[C@H](C)C(N)=O [Degarelix, D-Alaninamide, N-acetyl-3-(2-naphthalenyl)-D-alanyl-4-chloro-D-phenylalanyl-3-(3-pyridinyl)-D-alanyl-L-seryl-4-[[[(4S)-hexahydro-2,6-dioxo-4-pyrimidinyl]carbonyl]amino]-L phenylalanyl-4-[(aminocarbonyl)amino]-D-phenylalanyl-L leucyl-N6-(1-methylethyl)-L-lysyl-L-prolyl] (Ac-[d2Nal][dPhe(4-Cl)][d3Pal]S[Phe(4-NH2)](Dihydroorotyl(S))[dPhe(4-NHCONH2)]L[Lys(iPr)]P[dA]-NH2)
- metabolites in plasma samples [1]: No significant metabolites were detected
- Median degarelix trough concentration ([1]; male, 80 mg): 10.9 ng/mL
- AUC ([1]; male, 240 mg): 29800 ng·h/mL
- distribution volume [2]: approximately 1 L/kg
- fraction excreted via the hepato-biliary system [2]: approximately 80%
- fraction of dose renally excreted [2]: approximately 20%
- substrate for the human CYP450 system [3]: not a substrate for the human CYP450 system
- median testosterone level [4]: < 0.5 ng/mL
- Any CV adverse event, % (adverse events E) [5]: 6.0%
- Any CV adverse event, % of patients with adverse events [5]: 2.9%
- Any CV adverse event, E = Number of adverse events [5]: 90
- Any CV adverse event, N = Number of patients with adverse events [5]: 44
- HR for CV event, degarelix versus the agonist [5]: 0.62
- HR for CV event, degarelix vs agonist [5]: 0.49
- Hemorrhagic stroke, % (adverse events E) [5]: 0.2%
- Hemorrhagic stroke, % of patients with adverse events [5]: 0.2%
- Hemorrhagic stroke, E = Number of adverse events [5]: 3
- Hemorrhagic stroke, N = Number of patients with adverse events [5]: 3
- Ischemic heart disease, % (adverse events E) [5]: 1.8%
- Ischemic heart disease, % of patients with adverse events [5]: 1.7%
- Ischemic heart disease, E = Number of adverse events [5]: 27
- Ischemic heart disease, N = Number of patients with adverse events [5]: 25
- Ischemic stroke, % (adverse events E) [5]: 1.1%
- Ischemic stroke, % of patients with adverse events [5]: 0.9%
- Ischemic stroke, E = Number of adverse events [5]: 16
- Ischemic stroke, N = Number of patients with adverse events [5]: 14
- Myocardial infarction, % (adverse events E) [5]: 1.0%
- Myocardial infarction, % of patients with adverse events [5]: 0.8%
- Myocardial infarction, E = Number of adverse events [5]: 15
- Myocardial infarction, N = Number of patients with adverse events [5]: 13
- Other embolic or thrombotic events, arterial, % (adverse events E) [5]: 1.9%
- Other embolic or thrombotic events, arterial, % of patients with adverse events [5]: 1.5%
- Other embolic or thrombotic events, arterial, E = Number of adverse events [5]: 29
- Other embolic or thrombotic events, arterial, N = Number of patients with adverse events [5]: 23
- risk of a CV event lower if taking degarelix versus the agonist [5]: 38%
- drug-related erectile dysfunction, gynaecomastia, hyperhidrosis, testicular atrophy, diarrhea: % of patients [6]: ≥ 1%
- changes in liver function [7]: no evidence of any clinically significant changes in liver function
